Measurements from patent publication US20240082342A1, “PEPTIDE THERAPEUTICS FOR INCREASING LUNG CELL VIABILITY” (BOARD OF REGENTS, THE UNIVERSITY OF TEXAS SYSTEM, priority 2018, published 2024).
Entries after “also recorded” stand apart in the source; their conditions may differ.

Columns and labels:
human COPD lung tissues = test: Human COPD lung tissues treated ex vivo for 72 h; format: cell-based; conditions: for active caspase-3 in AT2 cells isolated from treated tissue: COPD tissue ex vivo
Procedure: Lung tissues from control subjects and patients with COPD were treated with or without CSP7 for 72 h ex vivo or in vitro. Lung homogenates were analyzed for immunoblot and Real time PCR.
Treatment of human lung tissues with CSP7 ex vivo. For ex vivo studies, de-identified human COPD lung tissues and histologically “normal” lung (nL) tissues were obtained from transplant recipients and from the Gift of Life Donor Program (www.donors1.org) from Temple University, Philadelphia, PA, USA.
Ex vivo studies using human lung tissues without patient identity was approved by the Institutional (UTHSCT) Review Board (IRB) through exempt protocol #12-003. nL and COPD tissues (n=4-5) were treated with or without CSP7 for 72 h ex vivo as described previously (Marudamuthu et al, 2019). Total protein and RNA extracted from the lung tissues were analyzed by Western blotting and qPCR for MUC5AC protein and mRNA, respectively. In separate experiments, AT2 cells isolated from nL and COPD lungs were treated with CSP7 or CP and immunoblotted for changes in senescence or apoptosis, p53, PAI-1 and SP-C expression. Similarly, nL and COPD tissues were treated with or without CSP7 or CP for 72 h ex vivo and AT2 cells isolated from these tissues were analyzed for senescence or apoptosis, p53, PAI-1 and SP-C.

WT mice exposed to PTS = test: Passive tobacco smoke (PTS) exposed WT mice treated IP with CSP or CSP7 once a week; format: in vivo, mouse; conditions: for p53, PAI-1 expression and apoptosis in A2Cs/A2ECs: PTS (or IL-17A) exposure; for pulmonary influx of CD4- and CD8-positive T cells, macrophages and neutrophils: PTS exposed mice
Procedure: Four weeks after initiation of PTS exposure, the WT mice were administered an intraperitoneal injection of vehicle or CSP (18.75 mg/kg body wt) or control peptide (CP) once a week for the next 4 weeks. Exposure to PTS was continued for another 12 weeks. BAL fluid and lysates (CL) from A2ECs isolated from PTS exposed WT mice treated with vehicle, CSP or CP were immunoblotted for p53 and PAI-1 and activation of caspase-3. -β-actin was tested for similar loading. […] The process involves inhibition of p53-induced PAI-1 expression.
FIGS. 57A-57C show inhibition of PTS-induced IL-17A by CSP in WT mice. Four weeks after initiation of PTS exposure as in FIG. 56, the WT mice were administered an intraperitoneal (IP) injection of vehicle or CSP (18.75 mg/kg body wt) or control peptide (CP) once a week for the next 4 weeks. Exposure to PTS was continued for another 12 weeks. Lung sections (A), lung homogenates (B) and total RNA (C) were analyzed for IL-17A and IL-17R mRNA expression by qRT-PCR.
FIGS. 60A-60B show inhibition of PTS-induced p53^AC, p53^S15 and p53, PAI-1, apoptosis and senescence by CSP7 in WT mice. Four weeks after initiation of PTS exposure as in FIG. 56, the WT mice were IP injected with vehicle or CSP7 or CP once a week for the next 4 weeks. Exposure to PTS was continued for another 12 weeks. (A) Lung sections were subjected IHC analysis for p53 and PAI-1. (B) A2ECs isolated from the lungs of these mice were immunoblotted for above mentioned proteins.
Wild-type (WT) and p53- and PAI-1-deficient mice of C57BL/6 background were bred in the inventor's facilities or were purchased from Jackson Laboratories. These mice were exposed to passive TSE from 40 research cigarettes over a 2 hour period 5 days/week for 20 weeks (^˜90 mg/m3 total solid particulates) by using a mechanical smoking chamber (Teague Enterprises, Davis, CA). Control mice were exposed to ambient air. Four weeks after initiation of passive TSE exposure, the mice were administered an intraperitoneal injection of CSP7 or scrambled control peptide (CP) (18.75 mg/kg body wt) once a week for 4 weeks (Marudamuthu et al. Am J Pathol 185: 55-68, 2015); Tiwari et al., supra). Mice were killed, and their lungs were used for further analyses (Bhandary et al., supra).

[1] = test system: ATII cells and BALF of IL-17A treated mice; test: IL-17A-induced lung injury in mice; format: in vivo, mouse; conditions: for A2EC p53, PAI-1 and apoptosis: WT mice exposed to IL-17A
Procedure: IL-17A is induced in passive tobacco smoke (PTS) exposed lung injury. […] Further, IL-17A induced ^p15Sp53 was inhibited following treatment of mice CSP7 when compared with those treated with saline and control peptide. To further test whether IL-17A induced ^p15Sp53 alters PAI-1 expression and ATII apoptosis, ATII cells of IL-17A treated mice for PAI-1 and apoptotic markers were analyzed. IL-17A induced the expression of PAI-1 and cl.Cas-3, and inhibited Sirt-1 expression in ATII cells. […] In addition, CSP7 treatment found to inhibit serine phosphorylation of p53 by neutralizing elevated IL-17A due to PTS exposure.
To test the importance of miR-34a mediated deacetylation of p53 IL-17A or PTS induced lung injury, miR34a conditional knockout mice were treated with tamoxifen. miR34a conditional knockout mice treated with IL-17A (3 μg/mice) was administered with CSP7 and CP a day later. ATII cells isolated from these mice were screened for PAI-1, Sirt-1 and apoptotic markers. […] Further, CSP7 treatment had little effect in miR-34a^cKo mice since these mice resist IL-17A or PTS injury.

PP2A = target: T1, PP2A (Mus musculus, UniProt P63330); test: PP2A activity assay in lung homogenates of CS exposed WT mice; format: in vivo; conditions: WT mice with CS-LI, Neb or IP, 4 weeks
T1 construct: from tissue; host or cells: lung homogenates of WT C57BL/6J mice
Procedure: PP2A Activity Determination and PP2A Inhibitors PP2A activity was determined using the Millipore PP2A activity assay (17-313; Millipore) (Nath S, et al., Am J Respir Cell Mol Biol. 59:695-705, 2018 December).
Determination of protein phosphatase 2A (PP2A) activity. PP2A activity was determined in isolated AECs and lung homogenates using the PP2A activity assay kit (Millipore) (Nath et al, Am J Respir Cell Mol Biol 59:695-705, 2018. doi: 10.1165/rcmb.2018-01730C.)

T1 sequence (P63330 whole entry): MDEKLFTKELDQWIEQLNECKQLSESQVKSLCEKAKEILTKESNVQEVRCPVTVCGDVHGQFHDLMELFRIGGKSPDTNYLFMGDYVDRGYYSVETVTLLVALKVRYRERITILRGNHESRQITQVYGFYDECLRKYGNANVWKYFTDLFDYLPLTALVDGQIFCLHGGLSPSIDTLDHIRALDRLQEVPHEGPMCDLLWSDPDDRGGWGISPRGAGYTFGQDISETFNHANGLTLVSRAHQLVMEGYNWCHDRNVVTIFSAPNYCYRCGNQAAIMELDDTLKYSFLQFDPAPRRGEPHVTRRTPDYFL

## DGIWKASFTTFTVTKYWFYR (listed as Homo sapiens) [CSP, 20 residue caveolin-1 scaffolding domain peptide]
Human COPD lung tissues; COPD tissue, 10 μM, 72 h
  MUC5AC, HDAC6, SPDEF, Ac-Tubulin, FOXA2 and other MCM markers (Western blot): reverse
WT mice exposed to PTS
  p53, PAI-1 expression and apoptosis in A2Cs/A2ECs: mitigates A2EC apoptosis
  pulmonary influx of CD4- and CD8-positive T cells, macrophages and neutrophils: inhibits pulmonary influx of CD4- and CD8-positive T cells, macrophages and neutrophils
WT mice exposed to PTS; WT mice, 20 weeks PTS
  lung inflammation, pulmonary PMN accumulation (MPO): significantly suppresses lung inflammation
  lung volume (micro-CT): significantly reduced; also recorded: reduced lung volumes
WT mice exposed to PTS; WT mice, PTS
  Cav1 binding with PP2Ac in A2ECs: inhibited the PTS-induced binding of Cav1 with PP2Ac
  Cav1 expression in A2ECs: without affecting Cav1 expression; also recorded: without inhibiting PTS-induced Cav1
  PTS-induced IL-17A (and IL-17R) in the lungs: inhibits PTS-induced accumulation of IL-17A in the lungs; also recorded: significantly inhibited PTS-induced IL-17A and IL-17R levels
  acetylated p53, serine-15 phosphorylated p53, total p53 and Sirt1 in A2ECs: blocked ^p15Sp53; also recorded: inhibits acetylation; also recorded: restoration of Sirt1; also recorded: reduced p53^AC, p53^S15 and total p53 levels, and restored baseline Sirt1 expression
  miR-34a expression in A2ECs: suppression of miR-34a expression; also recorded: significantly inhibited
[1]
  A2EC p53, PAI-1 and apoptosis: reduced A2EC p53, PAI-1 and apoptosis in vivo

## FTTFTVT (listed as Homo sapiens) [CSP7, heptapeptide fragment of the caveolin-1 scaffolding domain peptide CSP]
PP2A
  PP2A activity / signaling: reversed by CSP7; also recorded: improved PP2A activity
Human COPD lung tissues; COPD tissue
  PP2A and CIP2A mRNA: significantly reversed
Human COPD lung tissues
  active caspase-3 in AT2 cells isolated from treated tissue: reduced active caspase-3
Human COPD lung tissues; COPD tissue, 10 μM, 72 h
  MUC5AC, HDAC6, FOXA3, CAV1 and FOXA2 mRNA: parallel inhibition of MUC5AC, HDAC6, FOXA3 and CAV1 mRNA with an increase in FOXA2 mRNA
  MUC5AC, HDAC6, SPDEF, Ac-Tubulin, FOXA2 and other MCM markers (Western blot): reverse; also recorded: reduced MUC5AC and other MCM markers
  baseline CAV1, p53 and PAI-1: suppression of baseline CAV1, p53, and PAI-1
Human COPD lung tissues; COPD tissue, 72 h ex vivo
  p53 and SP-C in AT2 cells isolated from treated tissue: reduction in p53 while restoring baseline SP-C expression
Human COPD lung tissues; normal lung tissue ex vivo
  effect in nL tissues: minimal effect
WT mice exposed to PTS
  p53, PAI-1 expression and apoptosis in A2Cs/A2ECs: inhibited PTS or IL-17A exposure induced p53
  pulmonary influx of CD4- and CD8-positive T cells, macrophages and neutrophils: inhibits pulmonary influx of CD4- and CD8-positive T cells, macrophages and neutrophils; also recorded: reversed
WT mice exposed to PTS; WT mice, 20 weeks PTS
  PAI-1, p53^AC, p53^S15, cleaved Caspase-3 and beta-galactosidase in lung sections and A2ECs: markedly reduced
  lung volume (micro-CT): significantly reduced; also recorded: reduced lung volumes
WT mice exposed to PTS; WT mice, PTS
  Cav1 expression in A2ECs: without inhibiting PTS-induced Cav1
  PTS-induced IL-17A (and IL-17R) in the lungs: inhibits PTS-induced accumulation of IL-17A in the lungs
  acetylated p53, serine-15 phosphorylated p53, total p53 and Sirt1 in A2ECs: reduced p53^AC, p53^S15 and total p53 levels, and restored baseline Sirt1 expression
  miR-34a expression in A2ECs: reduced miR-34a
WT mice exposed to PTS; injected 4 weeks after initiation of TSE, 20 weeks
  p53 and PAI-1 in BAL fluids and lung homogenates: significantly suppressed the expression of p53 and PAI-1
[1]; IL-17A treated mice, vs saline and control peptide
  IL-17A induced serine phosphorylation of p53 (p15Sp53) in ATII cells: inhibited
[1]
  A2EC p53, PAI-1 and apoptosis: reduced A2EC p53, PAI-1 and apoptosis in vivo
[1]; miR34a conditional knockout mice treated with IL-17A
  effect in miR-34a^cKO mice: little effect
[1]; mice with IL-17A or PTS (10 weeks) injury
  BALF myeloperoxidase (MPO) activity: significantly reduced the MPO activity

## WGIDKAFFTTSTVTYKWFRY [CP, scrambled control peptide with the same amino acid composition as CSP, reference compound]
PP2A
  PP2A activity / signaling: still showed loss of PP2A activity
Human COPD lung tissues
  active caspase-3 in AT2 cells isolated from treated tissue: otherwise increased
Human COPD lung tissues; COPD tissue, 10 μM, 72 h
  MUC5AC, HDAC6, FOXA3, CAV1 and FOXA2 mRNA: failed to respond
WT mice exposed to PTS; WT mice, PTS
  acetylated p53, serine-15 phosphorylated p53, total p53 and Sirt1 in A2ECs: still showed elevated p53^AC, p53^S15, total p53 and PAI-1
